Results from US10457703B2, “Bile acid derivatives as FXR/TGR5 agonists and methods of use thereof” (ENANTA PHARMACEUTICALS, INC., priority 2015, dated 2019).

Biological target: human FXR (NR1H4) (Homo sapiens (Human), UniProt Q96RI1)
Assay: Human FXR (NR1H4) Assay (Gal4 promoter driven luciferase reporter, Indigo Bioscience kit);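 as to Efficacy (%): 100% equals the efficacy of CDCA; efficacy normalized to CDCA set as 100%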
Format: cell-based
Conditions: for EC50: Human FXR (NR1H4) Assay, potency ranges; for Emax: read-out: Efficacy (%)
Summary of the method: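 CHO reporter cells expressing human FXR with an FXR-responsive luciferase reporter, treated with compound doses at 0.2% DMSO. Incubation lasted 22 h at 37 °C before luciferase detection reagent was added. Luminescence was then read.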

human FXR (NR1H4), sequence (Q96RI1 whole entry, the tested form may be a part): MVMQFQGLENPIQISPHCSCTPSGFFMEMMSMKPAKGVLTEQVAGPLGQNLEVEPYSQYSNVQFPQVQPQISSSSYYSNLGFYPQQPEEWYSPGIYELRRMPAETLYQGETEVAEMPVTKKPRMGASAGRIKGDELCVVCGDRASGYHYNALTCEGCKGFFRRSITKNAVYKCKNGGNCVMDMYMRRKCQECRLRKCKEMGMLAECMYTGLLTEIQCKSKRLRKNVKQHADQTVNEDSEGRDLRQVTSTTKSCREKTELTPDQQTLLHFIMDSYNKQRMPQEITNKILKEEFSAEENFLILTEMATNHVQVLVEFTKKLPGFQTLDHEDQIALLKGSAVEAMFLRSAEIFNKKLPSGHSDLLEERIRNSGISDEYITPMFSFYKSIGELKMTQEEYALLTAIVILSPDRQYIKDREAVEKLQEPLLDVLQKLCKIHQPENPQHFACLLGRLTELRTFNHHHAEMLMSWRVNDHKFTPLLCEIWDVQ

| SMILES | EC50 [nM] | Emax [%] |
| --- | --- | --- |
| CC[C@H]1[C@@H](O)[C@@H]2[C@H](CC[C@]3(C)[C@@H]([C@H](C)CCOC(=O)NS(=O)(=O)c4ccccc4Cl)CC[C@@H]23)[C@@]2(C)CC[C@@H](O)C[C@@H]12 [Example 76] | 100 to 1000 | 234 |
| CC[C@H]1[C@@H](O)[C@@H]2[C@H](CC[C@]3(C)[C@@H]([C@H](C)CCOC(=O)NS(=O)(=O)c4ccccc4OC(F)(F)F)CC[C@@H]23)[C@@]2(C)CC[C@@H](O)C[C@@H]12 [Example 77] | 100 to 1000 | 383 |
| CC[C@H]1[C@@H](O)[C@@H]2[C@H](CC[C@]3(C)[C@@H]([C@H](C)CCOC(=O)NS(=O)(=O)c4cccc(C(F)(F)F)c4)CC[C@@H]23)[C@@]2(C)CC[C@@H](O)C[C@@H]12 [Example 78] | 100 to 1000 | 365 |
| CC[C@H]1[C@@H](O)[C@@H]2[C@H](CC[C@]3(C)[C@@H]([C@H](C)CCOC(=O)NS(=O)(=O)c4ccc(C(F)(F)F)cc4)CC[C@@H]23)[C@@]2(C)CC[C@@H](O)C[C@@H]12 [Example 79] | < 100 | 376 |
| CC[C@H]1[C@@H](O)[C@@H]2[C@H](CC[C@]3(C)[C@@H]([C@H](C)CCOC(=O)NS(=O)(=O)c4ccccc4C(F)(F)F)CC[C@@H]23)[C@@]2(C)CC[C@@H](O)C[C@@H]12 [Example 80] | 100 to 1000 | 363 |
| CC[C@H]1[C@@H](O)[C@@H]2[C@H](CC[C@]3(C)[C@@H]([C@H](C)CCOC(=O)NS(=O)(=O)c4cccc5ccccc45)CC[C@@H]23)[C@@]2(C)CC[C@@H](O)C[C@@H]12 [Example 81] | < 100 | 372 |
| CC[C@H]1[C@@H](O)[C@@H]2[C@H](CC[C@]3(C)[C@@H]([C@H](C)CCOC(=O)NS(=O)(=O)c4cnn(C)c4)CC[C@@H]23)[C@@]2(C)CC[C@@H](O)C[C@@H]12 [Example 82] | 1000 to 10000 | 294 |
| CC[C@H]1[C@@H](O)[C@@H]2[C@H](CC[C@]3(C)[C@@H]([C@H](C)CCOC(=O)NS(=O)(=O)CCOC)CC[C@@H]23)[C@@]2(C)CC[C@@H](O)C[C@@H]12 [Example 83] | 100 to 1000 | 275 |
| CC[C@H]1[C@@H](O)[C@@H]2[C@H](CC[C@]3(C)[C@@H]([C@H](C)CCOC(=O)NS(=O)(=O)c4ccccc4OC)CC[C@@H]23)[C@@]2(C)CC[C@@H](O)C[C@@H]12 [Example 84] | < 100 | 270 |
| CC[C@H]1[C@@H](O)[C@@H]2[C@H](CC[C@]3(C)[C@@H]([C@H](C)CCOC(=O)NS(=O)(=O)c4ccccc4C(C)(C)C)CC[C@@H]23)[C@@]2(C)CC[C@@H](O)C[C@@H]12 [Example 85] | < 100 | 240 |
| CC[C@H]1[C@@H](O)[C@@H]2[C@H](CC[C@]3(C)[C@@H]([C@H](C)CCOC(=O)NS(=O)(=O)c4cccc(OC)c4)CC[C@@H]23)[C@@]2(C)CC[C@@H](O)C[C@@H]12 [Example 86] | 100 to 1000 | 288 |
| CC[C@H]1[C@@H](O)[C@@H]2[C@H](CC[C@]3(C)[C@@H]([C@H](C)CCOC(=O)NS(=O)(=O)c4ccc(OC)c(OC)c4)CC[C@@H]23)[C@@]2(C)CC[C@@H](O)C[C@@H]12 [Example 87] | 100 to 1000 | 274 |
| CC[C@H]1[C@@H](O)[C@@H]2[C@H](CC[C@]3(C)[C@@H]([C@H](C)CCOC(=O)NS(=O)(=O)c4ccc5ccccc5c4)CC[C@@H]23)[C@@]2(C)CC[C@@H](O)C[C@@H]12 [Example 88] | < 100 | 236 |
| CC[C@H]1[C@@H](O)[C@@H]2[C@H](CC[C@]3(C)[C@@H]([C@H](C)CCOC(=O)NS(=O)(=O)c4ccc5c(c4)CCCC5)CC[C@@H]23)[C@@]2(C)CC[C@@H](O)C[C@@H]12 [Example 89] | < 100 | 278 |
